Source: article PMC10814857, “Functional Classification and Interaction Selectivity Landscape of the Human SH3 Domain Superfamily” (Cells, 2024)
Read-outs that look alike come from different tables or passages of the source. Peptide text beside a SMILES is read from it.

Columns and labels:
[1] = molecular target: T1, ARHGAP12Set-1 (K28S, R30N, F62G, Y63W) SH3 domain (Homo sapiens, UniProt Q8IWW6, F62G/K28S/R30N/Y63W); test: Fluorescence polarization, SH3 domain mutant; type: binding; conditions: ARHGAP12 Set-1 mutant; FP, 0.2 µM fluorescent peptide, quadratic fit
T1 construct: 12-74; GST (N); made in house; host or cells: Escherichia coli (CodonPlus, Rosetta, BL21(DE3)), pGEX4-T1
Description: (§1) The interaction between fluorescein-labeled proline-rich peptides (0.2 µM) and increasing concentrations of SH3 domains (ranging from 0 to 200 µM) was measured in a buffer (containing 30 mM Tris/HCl (pH 7.5), 5 mM MgCl2, and 3 mM DTT at 25 °C) in a total volume of 200 µL using a Fluoromax 4 fluorimeter in polarization mode and a quartz glass fluorescence cuvette (Hellma Ultra-Micro Cuvette 105.250-QS, Thermo Fisher Scientific, Waltham, MA USA). Excitation was performed at 470 nm and emission was measured at 560 nm. Dissociation constants (Kd) were determined by fitting the concentration-dependent binding curve to a quadratic ligand binding equation.
(§2) To better understand the role of the residues of SH3 domains in selective binding to PRPs, we have generated a multiple sequence alignment (Figure S7). It highlights the conserved and variable residues that are likely to be critical for the selectivity and affinity of the SH3 domain–PRM interactions. […] Two different sets of mutations were generated by substituting a combination of amino acids from ARHGAP12 and NCK1-3 for ABL2 and BIN1 and vice versa (Figure 3A; Table S1).
(§3) Figure S8. Mutational analysis of the SH3-fluorescent PRPs interactions using fluorescence polarization.
(§4) Fluorescent peptides (0.2 µM) were titrated with increasing concentrations of the corresponding SH3 domain mutants (see Figure 3A and Table S1). The x-axis represents SH3 domain concentrations as GST fusion proteins in µM, while the y-axis represents fluorescence polarization. The equilibrium dissociation constants (Kd) for the respective measurements were determined by fitting the titration curves to a quadratic ligand-binding equation […]
(§5) (solid lines). Error bars are derived from the fitting errors.
(§6) (1 picture or pasted object on this page, not shown here)

[2] = molecular target: T2, NCK1-3Set-2 (N225E, W229G, K244E) SH3 domain (Homo sapiens, UniProt P16333, K244E/N225E/W229G); test: Fluorescence polarization, SH3 domain mutant; type: binding; conditions: NCK1-3 Set-2 mutant, FP, 0.2 µM fluorescent peptide, quadratic fit
T2 construct: 190–252; GST (N); made in house; host or cells: Escherichia coli (CodonPlus, Rosetta, BL21(DE3)), pGEX4-T1
Description: as §1, §2, §3, §4, §5, §6

T1 sequence (Q8IWW6 12-74 K28S/R30N/F62G/Y63W): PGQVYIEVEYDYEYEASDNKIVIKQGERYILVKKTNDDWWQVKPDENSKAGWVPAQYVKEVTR

| Compound | Kd [1] [µM] | Kd [2] | Kd ([2]; read-out: Kd) [µM] |
| --- | --- | --- | --- |
| C[C@H](N)C(=O)N[C@@H](Cc1ccccc1)C(=O)N[C@@H](Cc1ccccc1)C(=O)N1CCC[C@H]1C(=O)N[C@@H](CC(N)=O)C(=O)N[C@@H](CO)C(=O)N1CCC[C@H]1C(=O)N[C@@H](CO)C(=O)N1CCC[C@H]1C(=O)N[C@@H](Cc1ccccc1)C(=O)N[C@H](C(=O)N1CCC[C@H]1C(=O)N1CCC[C@H]1C(=O)N1CCC[C@H]1C(=O)N1CCC[C@H]1C(=O)N[C@@H](CCC(N)=O)C(=O)N[C@H](C(=O)N1CCC[C@H]1C(=O)N[C@@H](CO)C(=O)N1CCC[C@H]1C(=O)N[C@@H](Cc1c[nH]cn1)C(=O)NCC(=O)N[C@H](C(=O)O)[C@@H](C)O)[C@@H](C)O)[C@@H](C)O [Peptide P7] (H-AFFPNSPSPFTPPPPQTPSPHGT-OH) | 23 |  |  |
| CC[C@H](C)[C@H](N)C(=O)N[C@@H](C)C(=O)NCC(=O)N1CCC[C@H]1C(=O)N1CCC[C@H]1C(=O)N[C@H](C(=O)N1CCC[C@H]1C(=O)N1CCC[C@H]1C(=O)N[C@@H](CCCNC(=N)N)C(=O)N[C@@H](CCC(N)=O)C(=O)N[C@@H](CO)C(=O)O)C(C)C [Peptide P9] (H-IAGPPVPPRQS-OH) |  | did not differ from the NCK1-3^wt | 0.8 |
